Measured values taken from patent US20190233884A1 (University of Southern California, priority 2016, published 2019).

Tested on: patients with refractory metastatic colorectal cancer (mCRC)
Assay: PFS, OS and disease control in the training (evaluation) cohort of refractory mCRC patients receiving TAS-102 (n=52, Japan), by baseline characteristics, SNP genotype and toxicity
Type: in vivo, human
Settings: for PFS HR (95% CI) ‡ / OS HR (95% CI)‡: multivariable; for HR for OS / HR for PFS / Disease Control Rate PD / Disease Control Rate SD / Overall Survival Median, months (95% CI) / Progression-free Survival Median, months (95% CI) / Overall Survival HR (95% CI) multivariate / Overall Survival HR (95% CI) univariate / Progression-free Survival HR (95% CI) multivariate / Progression-free Survival HR (95% CI) univariate / OS / PFS: training cohort
Procedure: All patients underwent the treatment in salvage-line setting. […]
(§1) Genomic DNA was extracted from peripheral whole blood in patients of all cohorts using the QIAmp Kit (Qiagen, Valencia, Calif., USA) according to the manufacturer's protocol (www.qiagen.com). The candidate SNPs were genotyped using PCR-based direct DNA sequence analysis by ABI 3100A Capillary Genetic Analyzer and Sequencing Scanner v1.0 (Applied Biosystems). Amplification of extracted DNA was carried out using both forward and reverse primers for each gene polymorphism as shown in Table 1. […] The investigators analyzing SNPs were blinded to the clinical data of the study patients.
The primary endpoint in this study was progression-free survival (PFS), and the secondary endpoints were overall survival (OS) and disease control rate (DCR). PFS was calculated from the date of starting treatment to the first observation of disease progression or death from any cause. If a patient had no disease progression or death, PFS was censored at the date of last follow up. OS was calculated from the date of starting treatment until the date of death from any cause or the date of the last follow-up, at which point OS was censored. The disease control rate (DCR) was defined as the proportion of patients who achieved a stable disease (SD) or […] according to RECISTv1.1. Chi-square test was used to examine the difference in baseline patient characteristics among the three cohorts. Allelic distribution of all SNPs by ethnicity for deviation from Hardy-Weinberg equilibrium and the allelic frequencies of SNPs were tested using the Chi-square tests with one degree of freedom. The associations between candidate SNPs and disease control, and toxicities were examined using contingency tables and Fisher's exact test. The associations of SNPs with PFS and OS were analysed using Kaplan-Meier curves and the log-rank test. Because the true mode of inheritance of candidate SNPs was not established yet, a codominant or dominant genetic model if appropriate was considered.
All patients underwent the treatment in salvage-line setting. […] In all patients, adverse events were graded according to the Common Terminology Criteria for Adverse Events, version 4.0. […]
as §1, with “tested” for “genotyped”, “Biosystems).” for “Biosystems). Amplification of extracted DNA was carried out using both forward and reverse primers for each gene polymorphism as shown in Table 1.”, “data.” for “data of the study patients.”
The primary endpoint in this study was progression-free survival (PFS), and the secondary endpoints were overall survival (OS) and disease control rate (DCR).

[1] = p21 rs1801270 Any C vs A/A, univariate
[2] = p21 rs1801270 C/C vs A/A, univariate
[3] = p53 rs1042522 Any G vs C/C, univariate
[4] = p53 rs1042522 C/G vs C/C, univariate
[5] = p53 rs1042522 G/G vs C/C, univariate
[6] = MATE1/OCT2 combination Good vs Poor, univariate
[7] = MATE1/OCT2 combination, multivariable adjusted for liver metastases and adjuvant history
[8] = MATE1 rs2289669/OCT2 rs316019 combination, Good category
[9] = MATE1 rs2289669/OCT2 rs316019 combination, Poor category
[10] = MATE1 rs2289669 G/A vs G/G, univariate
[11] = OCT2 rs316019 C/A and A/A combined vs C/C

## Trifluridine/tipiracil [TAS-102]
p21 rs1801270 Any C vs A/A
  PFS HR (95% CI) ‡: 0.74 (0.37, 1.49)
[1]
  OS HR (95% CI)†: 0.64 (0.27, 1.56)
  PFS HR (95% CI) †: 0.88 (0.44, 1.74)
p21 rs1801270 C/C
  OS median, months (95% CI): 6.3 (3.1, 10.7) months
  PFS median, months (95% CI): 2.7 (1.6, 4.6) months
p21 rs1801270 C/C vs A/A
  OS HR (95% CI)‡: 0.72 (0.24, 2.15)
  PFS HR (95% CI) ‡: 0.77 (0.33, 1.79)
[2]
  OS HR (95% CI)†: 0.85 (0.29, 2.48)
  PFS HR (95% CI) †: 0.97 (0.43, 2.17)
p53 rs1042522 Any G
  OS median, months (95% CI): 7.2 (5.4, 15.6+) months
  PFS median, months (95% CI): 3.0 (2.1, 3.4) months
p53 rs1042522 Any G vs C/C
  OS HR (95% CI)‡: 1.28 (0.52, 3.19)
  PFS HR (95% CI) ‡: 1.10 (0.58, 2.09)
[3]
  OS HR (95% CI)†: 1.15 (0.47, 2.81)
  PFS HR (95% CI) †: 0.89 (0.48, 1.65)
p53 rs1042522 C/C
  OS median, months (95% CI): 8.7 (5.3, 14.8+) months
  PFS median, months (95% CI): 2.5 (1.6, 4.4) months
p53 rs1042522 C/G
  OS median, months (95% CI): 6.3 (4.4, 12.4+) months
  PFS median, months (95% CI): 3.0 (1.9, 3.5) months
p53 rs1042522 C/G vs C/C
  OS HR (95% CI)‡: 1.61 (0.64, 4.06)
  PFS HR (95% CI) ‡: 1.12 (0.57, 2.21)
[4]
  OS HR (95% CI)†: 1.35 (0.55, 3.35)
  PFS HR (95% CI) †: 0.86 (0.45, 1.65)
p53 rs1042522 G/G
  PFS median, months (95% CI): 2.3 (0.7, 4.6+) months
p53 rs1042522 G/G vs C/C
  OS HR (95% CI)‡: 0.38 (0.05, 3.11)
  PFS HR (95% CI) ‡: 1.04 (0.38, 2.86)
[5]
  OS HR (95% CI)†: 0.41 (0.05, 3.29)
  PFS HR (95% CI) †: 1.02 (0.37, 2.77)
[6]
  HR for OS: 0.39
  HR for PFS: 0.44
[7]
  HR for OS: 0.41
  HR for PFS: 0.45
MATE1_OCT019 good
  Disease Control Rate PD: 20 (59%)
  Disease Control Rate SD: 14 (41%)
  Overall Survival Median, months (95% CI): 8.3 (6.3, 15.6) months
  Progression-free Survival Median, months (95% CI): 3.4 (2.1, 4.1) months
MATE1_OCT019 good vs poor
  Overall Survival HR (95% CI) multivariate: 0.41 (0.16, 1.04)
  Overall Survival HR (95% CI) univariate: 0.39 (0.15, 0.98)
  Progression-free Survival HR (95% CI) multivariate: 0.45 (0.23, 0.88)
  Progression-free Survival HR (95% CI) univariate: 0.44 (0.22, 0.85)
MATE1_OCT019 poor
  Disease Control Rate PD: 11 (92%)
  Disease Control Rate SD: 1 (8%)
  Overall Survival Median, months (95% CI): 4.9 (2.8, 10.7) months
  Progression-free Survival Median, months (95% CI): 2.3 (1.2, 2.9) months
[8]
  OS: 8.3 months
  PFS: 3.4 months
[9]
  OS: 4.9 months
  PFS: 2.3 months
MATE1 rs2289669 A/A
  Disease Control Rate PD: 8 (80%)
  Disease Control Rate SD: 2 (20%)
  Overall Survival Median, months (95% CI): 4.9 (2.8, 6.5+) months
  Progression-free Survival Median, months (95% CI): 2.3 (1.2, 3.3) months
MATE1 rs2289669 A/A vs G/G
  Overall Survival HR (95% CI) multivariate: 1.98 (0.56, 6.99)
  Overall Survival HR (95% CI) univariate: 2.40 (0.59, 8.37)
  Progression-free Survival HR (95% CI) multivariate: 0.92 (0.38, 2.24)
  Progression-free Survival HR (95% CI) univariate: 0.94 (0.40, 2.18)
MATE1 rs2289669 Any A
  Disease Control Rate PD: 22 (61%)
  Disease Control Rate SD: 14 (39%)
  Overall Survival Median, months (95% CI): 8.3 (5.3, 15.6+) months
  Progression-free Survival Median, months (95% CI): 3.0 (2.1, 3.7) months
MATE1 rs2289669 Any A vs G/G
  Overall Survival HR (95% CI) multivariate: 0.93 (0.33, 2.59)
  Overall Survival HR (95% CI) univariate: 1.03 (0.37, 2.83)
  Progression-free Survival HR (95% CI) multivariate: 0.53 (0.25, 1.13)
  Progression-free Survival HR (95% CI) univariate: 0.56 (0.28, 1.13)
MATE1 rs2289669 G/A
  Disease Control Rate PD: 14 (54%)
  Disease Control Rate SD: 12 (45%)
  OS: 12.4 months
  Overall Survival Median, months (95% CI): 12.4 (5.7, 15.6+) months
  PFS: 3.4 months
  Progression-free Survival Median, months (95% CI): 3.4 (2.1, 4.4) months
MATE1 rs2289669 G/A vs G/G
  Overall Survival HR (95% CI) multivariate: 0.59 (0.23, 2.11)
  Overall Survival HR (95% CI) univariate: 0.75 (0.26, 2.28)
  Progression-free Survival HR (95% CI) multivariate: 0.41 (0.18, 0.94)
  Progression-free Survival HR (95% CI) univariate: 0.44 (0.20, 0.93)
[10]
  HR for OS: 0.76
  HR for PFS: 0.44
MATE1 rs2289669 G/A, multivariate adjusted for liver metastases and adjuvant history
  HR for PFS: 0.41
MATE1 rs2289669 G/G
  Disease Control Rate PD: 9 (90%)
  Disease Control Rate SD: 1 (10%)
  OS: 8.1 months
  Overall Survival Median, months (95% CI): 8.1 (5.4, 10.7+) months
  PFS: 2.0 months
  Progression-free Survival Median, months (95% CI): 2.0 (1.4, 3.4) months
OCT2 rs316019 A/A
  Disease Control Rate PD: 1 (25%)
  Disease Control Rate SD: 3 (75%)
OCT2 rs316019 C/A
  Disease Control Rate PD: 6 (67%)
  Disease Control Rate SD: 3 (33%)
OCT2 rs316019 C/A and A/A combined
  Progression-free Survival Median, months (95% CI): 3.0 (1.2, 6.0+) months
[11]
  Overall Survival HR (95% CI) multivariate: 1.74 (0.55, 5.51)
  Overall Survival HR (95% CI) univariate: 1.04 (0.38, 2.89)
  Progression-free Survival HR (95% CI) multivariate: 1.32 (0.58, 3.02)
